The record followed here is PMC3711766 (The Journal of neuroscience : the official journal of the …, 2013).

Experiment [1] has as its target T1, FLAG-MOR (Mus musculus, UniProt P42866). Format: binding.
The target in experiment [2] is T1, FLAG-MOR. The experiment can be described thus: Steady state binding of derm A594 in live FLAG-MOR HEK 293 cells.
In experiment [3] the target is T1, FLAG-MOR. The experiment can be described thus: Binding and unbinding kinetics of derm A594 in live FLAG-MOR HEK 293 cells. The settings on record: for average time constant of association: derm A594 30 nM.
The target in experiment [4] is T1, FLAG-MOR. In kind it is binding. The conditions noted are these: derm A594 200 nM; ME 30 µM 2 hrs, then ME 3 µM pre pulse.
Experiment [5] addresses T1, FLAG-MOR. In kind it is binding. This is another data set of the same source.
The target of experiment [6] is T1, FLAG-MOR. In kind it is cell-based. The settings on record: ME 1 µM, 5 sec; pertussis toxin 100 ng/mL overnight.

Where two headings read alike, the source gives them in different places. Where a SMILES comes first, the peptide text is derived from it. [ ]: non-standard residue; d: D form. The star is where a group is joined. X1 = CN1c2cc3c(cc2C(CS(=O)(=O)[O-])=CC1(C)C)C(c1ccc(C(=O)NCCCCCN2C(=O)CC(*)C2=O)cc1C(=O)O)=c1cc2c(cc1O3)=[N+](C)C(C)(C)C=C2CS(=O)(=O)O

The term kon denotes the second-order rate constant of association. For orientation: koff means the rate constant with which the complex falls apart.

T1 sequence (P42866 whole entry): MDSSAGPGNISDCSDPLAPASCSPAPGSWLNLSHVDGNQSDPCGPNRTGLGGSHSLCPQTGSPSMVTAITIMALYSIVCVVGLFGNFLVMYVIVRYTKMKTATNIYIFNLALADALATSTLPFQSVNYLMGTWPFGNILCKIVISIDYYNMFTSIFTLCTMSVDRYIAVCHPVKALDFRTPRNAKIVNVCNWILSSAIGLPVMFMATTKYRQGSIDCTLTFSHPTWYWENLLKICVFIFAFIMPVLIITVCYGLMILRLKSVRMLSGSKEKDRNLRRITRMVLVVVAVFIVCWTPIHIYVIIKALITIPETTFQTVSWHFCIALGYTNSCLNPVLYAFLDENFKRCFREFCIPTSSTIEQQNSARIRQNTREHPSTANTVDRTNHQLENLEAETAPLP

`COc1ccc2c3c1O[C@H]1C(=O)CC[C@@]4(O)[C@@H](C2)N(C)CC[C@]314` [oxycodone]: the “fraction derm A594 remaining after 3 min” value on FLAG-MOR [1] is on record as 0.23±0.01.

`C[C@@H](NC(=O)[C@@H](N)Cc1ccc(O)cc1)C(=O)N[C@@H](Cc1ccccc1)C(=O)NCC(=O)N[C@@H](Cc1ccc(O)cc1)C(=O)N1CCC[C@H]1C(=O)N[C@@H](CCCCN)C(=O)N[C@@H](CSC1CC(=O)N(CCCCCNC(=O)c2ccc(C3=c4cc5c(cc4Oc4cc6c(cc43)C(CS(=O)(=O)[O-])=CC(C)(C)N6C)=[N+](C)C(C)(C)C=C5CS(=O)(=O)O)c(C(=O)O)c2)C1=O)C(N)=O` (stereo partly drawn) [derm A594, dermorphin Alexa 594] (H-Y[dA]FGYPKC(X1)-NH2; N-terminus assumed): the “Hill slope of steady state binding” value is listed as 1.03±0.3 on FLAG-MOR [2] (after ME 30 µM 2 hrs) and 0.95±.02 on FLAG-MOR [2] (untreated live cells). The molecule also yielded a kon at FLAG-MOR [3] of 353000 M⁻¹ s⁻¹. Also, the “decrease of koff after ME treatment” value at FLAG-MOR [3] (ME 30 µM 2 hr vs untreated) is “approximately 6 fold”. Moreover, the “decrease of kon after ME treatment” value at FLAG-MOR [3] (ME 30 µM 2 hr vs untreated) is “about 40%”. Besides, the “average time constant of association” value amounted to 51.5 ± 7.8 s on FLAG-MOR [3] (ME treated cells (30 µM 2 hr)) and 11.4 ± 0.4 s at FLAG-MOR [3] (untreated cells). In addition, on FLAG-MOR [3] (live cells), the “time constant of dissociation from the receptor” value is roughly 10 s. In addition, the koff at FLAG-MOR [3] (read-out: koff (intercept of linear fit)) worked out at 0.011 s⁻¹. Further, the “relative amount of derm A594 bound after 1 min (R/G)” value on FLAG-MOR [4] amounted to 0.95±0.08. Also, the “fraction derm A594 remaining after 3 min” value came out at 0.09±0.01 at FLAG-MOR [5] (WT MEF cells, untreated) and 0.13±0.02 on FLAG-MOR [5] (β-arr 1/2 k.o. MEF cells, untreated).

Take pertussis toxin [reference compound]: the GIRK current on FLAG-MOR [6] is 3.3±6.8 pA. Further, the “fraction derm A594 remaining after 3 min” value on FLAG-MOR [5] (β-arr 1/2 k.o. MEF cells, pertussis toxin 100 ng/ml overnight, no ME) was determined as 0.12±0.02.
